Measured values published in patent US12390446B2 (RESEARCH TRIANGLE INSTITUTE, priority 2017, dated 2025).
Like-named read-outs stand apart in the source and are kept apart here. One block for each compound: values may come before it.

Legend:
Assay type in all cases: cell-based
[1] = biological target: T1, NPFF1 receptor (human NPFFR1 in CHO-RD-HGA16 cells) (Homo sapiens, UniProt Q9GZQ6); test: Calcium mobilization functional Ke assay, NPFF1; conditions: for Kb: read-out: NPFF1 Ke
T1 construct: expressed in transfected cells

[2] = biological target: T2, NPFF2 receptor (human NPFFR2 in CHO-RD-HGA16 cells) (Homo sapiens, UniProt Q9Y5X5); test: Calcium mobilization functional Ke assay, NPFF2
T2 construct: expressed in transfected cells

[3] = biological target: NPFF1 receptor (human NPFFR1-CHO cells) (Homo sapiens, UniProt Q9GZQ6); test: Lance cAMP functional Ke assay, NPFF1; conditions: Table 5
Protocol: (§1) Kinetic solubility and bidirectional MDCK-MDR1 permeability assays of the compounds were performed by Paraza Pharma Inc. (Montreal, Canada) according to their standard protocols.
(§2) cAMP assay. Stable human NPFFR1-CHO (ES-491-C) and NPFFR2-CHO (ES-490-C) cell lines were purchased from PerkinElmer and used with the Lance@ Ultra kit (TRF0262) to detect cAMP accumulation in low volume 96-well plates. Stimulation buffer containing 1× HBSS, 5 mM HEPES, 0.1% BSA stabilizer, and 0.5 mM IBMX was prepared and titrated to 7.4 at room temperature.
(§3) A single concentration of each test compound was prepared at 4× the desired final concentration in 2% DMSO/stimulation buffer and 5 μL was added to the assay plate.
(§4) Cells were lifted with versene and spun at 270 g for 10 minutes. The cell pellet was resuspended in stimulation buffer and 4,000 cells (10 μL) were added to each well. After incubating for 30 min at RT, Eu-cAMP tracer and uLIGHT-anti-cAMP working solutions were added per the manufacturer's instructions. After incubation at RT for 1 hour, the TR-FRET signal (ex 337 nm) was read on a CLARIOstar multimode plate reader (BMG Biotech, Cary NC).
(§5) Fluorescence values at 665 nm were plotted against the log of compound concentration using a nonlinear regression analysis to generate EC50 values (GraphPad Prism, GraphPad Software, Inc., San Diego CA). Ke values were calculated using the same equation as described in the calcium mobilization methods.

[4] = biological target: NPFF2 receptor (human NPFFR2-CHO cells) (Homo sapiens, UniProt Q9Y5X5); test: Lance cAMP functional Ke assay, NPFF2; conditions: Table 5
Protocol: as §1, §2, §3, §4, §5

[5] = Table 3, mean ± SEM, read-out: NPFF2 Ke
[6] = Table 1, mean ± SEM, apparent dissociation constant vs NPFF
[7] = Table 1, mean ± SEM, apparent dissociation constant vs NPFF, read-out: NPFF2 Ke
[8] = Table 4, mean ± SEM, read-out: NPFF2 Ke
[9] = Table 1, footnote c: pre-incubation of antagonist and test compound 45 min or 1 hr, read-out: NPFF2 Ke
[10] = Table 2, 4-(4-methylthio)benzylamino series, mean ± SEM

T2 sequence (Q9Y5X5 whole entry): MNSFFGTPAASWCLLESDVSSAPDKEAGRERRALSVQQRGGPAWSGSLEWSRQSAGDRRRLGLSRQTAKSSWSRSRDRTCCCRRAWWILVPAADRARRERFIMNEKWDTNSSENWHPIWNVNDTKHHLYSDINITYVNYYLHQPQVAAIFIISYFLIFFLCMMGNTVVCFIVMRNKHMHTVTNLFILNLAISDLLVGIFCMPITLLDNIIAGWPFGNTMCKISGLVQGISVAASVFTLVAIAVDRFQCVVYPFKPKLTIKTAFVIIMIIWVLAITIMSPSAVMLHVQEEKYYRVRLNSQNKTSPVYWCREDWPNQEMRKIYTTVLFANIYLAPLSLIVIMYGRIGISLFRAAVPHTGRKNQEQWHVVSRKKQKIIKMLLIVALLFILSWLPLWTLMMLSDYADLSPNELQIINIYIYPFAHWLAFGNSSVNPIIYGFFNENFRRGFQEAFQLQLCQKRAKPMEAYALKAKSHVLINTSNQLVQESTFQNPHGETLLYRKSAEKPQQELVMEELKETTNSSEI
T1 sequence (Q9GZQ6 whole entry): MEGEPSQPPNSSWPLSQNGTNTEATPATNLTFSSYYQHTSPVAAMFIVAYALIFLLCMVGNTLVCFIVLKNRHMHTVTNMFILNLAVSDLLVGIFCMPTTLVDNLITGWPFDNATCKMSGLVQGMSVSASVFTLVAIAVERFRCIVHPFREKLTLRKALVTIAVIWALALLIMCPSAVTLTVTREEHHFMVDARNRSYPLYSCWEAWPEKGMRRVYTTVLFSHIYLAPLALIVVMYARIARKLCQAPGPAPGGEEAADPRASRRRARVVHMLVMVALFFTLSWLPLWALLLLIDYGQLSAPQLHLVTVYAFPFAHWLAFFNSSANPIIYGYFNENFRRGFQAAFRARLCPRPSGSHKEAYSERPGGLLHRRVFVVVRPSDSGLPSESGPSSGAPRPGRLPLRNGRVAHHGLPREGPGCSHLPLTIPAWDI
Sequence of NPFF2 receptor (human NPFFR2-CHO cells) (Q9Y5X5 whole entry): as the sequence (Q9Y5X5 whole entry) above
Sequence of NPFF1 receptor (human NPFFR1-CHO cells) (Q9GZQ6 whole entry): as the sequence (Q9GZQ6 whole entry) above

Compound: O=C(NCCc1ccc([N+](=O)[O-])cc1)[C@@H]1C[C@H](NCc2ccc(F)cc2)CN1Cc1ccccc1Cl [Compound 64, (2S,4S)-1-[(2-Chlorophenyl)methyl]-4-{[(4-fluorophenyl)methyl]amino}-N-[2-(4-nitrophenyl)ethyl]pyrrolidine-2-carboxamide]
- Kb ([1]; Table 3, mean ± SEM): 960 ± 690 nM
- preference / selectivity for NPFF1 over NPFF2 ([1]; from calcium mobilization Ke values): more than 10 fold
- Kb [2, 5]: > 10000 nM
- Kb ([2]; Table 5, read-out: Calcium mobilization assay Ke NPFF2): > 10000 nM
- Kb [3]: 1440 nM
- Kb [4]: 960 nM

Compound: COc1ccc(CN[C@H]2C[C@@H](C(=O)NCCc3ccc(F)cc3)N(Cc3ccccc3Cl)C2)cc1 [Compound 35, (2S,4S)-1-[(2-Chlorophenyl)methyl]-N-[2-(4-fluorophenyl)ethyl]-4-{[(4-methoxyphenyl)methyl]amino}pyrrolidine-2-carboxamide]
- Kb [1, 6]: 1130 nM
- NPFF1 Ke ([1]; calcium mobilization assay): 1,130 nM
- Kb [2, 7]: 9880 nM

Compound: COc1ccc(CN[C@H]2C[C@@H](C(=O)NCCc3ccccc3)N(Cc3ccc(O)cc3)C2)cc1 [Compound 84, (2S,4S)-1-[(4-Hydroxyphenyl)methyl]-4-{[(4-methoxyphenyl)methyl]amino}-N-(2-phenylethyl)pyrrolidine-2-carboxamide]
- Kb ([1]; Table 4, mean ± SEM): > 10000 nM
- Kb [2, 8]: > 10000 nM

Compound: CCN(CC)C(=O)[C@@H]1C[C@H](NCc2ccc(OC)cc2)CN1Cc1ccccc1Cl [Compound 40, (2S,4S)-1-[(2-Chlorophenyl)methyl]-N,N-diethyl-4-{[(4-methoxyphenyl)methyl]amino}pyrrolidine-2-carboxamide]
- Kb [1, 6]: 2900 nM
- Kb [2, 7]: 4930 nM

Compound: CCCN(CCC)C(=O)[C@@H]1C[C@H](NCc2ccc(OC)cc2)CN1Cc1ccccc1Cl [Compound 41, (2S,4S)-1-[(2-Chlorophenyl)methyl]-4-{[(4-methoxyphenyl)methyl]amino}-N,N-dipropylpyrrolidine-2-carboxamide]
- Kb ([1]; Table 1, footnote c: pre-incubation of antagonist and test compound 45 min or 1 hr): 880 ± 120 nM
- Kb ([1]; calcium mobilization assay): 880 nM
- type of antagonism in curve-shift assays ([1]; standard incubation, competitive profile with longer incubations): insurmountable antagonism
- Kb [2, 9]: 1730 nM

Compound: CCNC(=O)[C@@H]1C[C@H](NCc2ccc(OC)cc2)CN1Cc1ccccc1Cl [Compound 11, (2S,4S)-1-[(2-Chlorophenyl)methyl]-N-ethyl-4-{[(4-methoxyphenyl)methyl]amino}pyrrolidine-2-carboxamide]
- Kb [1, 6]: > 10000 nM
- NPFF1 antagonist activity ([1]; at 10 μM): inactive
- Kb ([1]; calcium mobilization assay): > 10000 nM
- Kb [2, 7]: > 10000 nM
- NPFF2 antagonist activity ([2]; at 10 μM): inactive

Compound: COc1ccc(CN[C@H]2C[C@@H](C(=O)NC(C)(C)C)N(Cc3ccccc3Cl)C2)cc1 [Compound 15, (2S,4S)—N-tert-Butyl-1-[(2-chlorophenyl)methyl]-4-{[(4-methoxyphenyl)methyl]amino}pyrrolidine-2-carboxamide]
- Kb [1, 6]: 1880 nM
- Kb [2, 9]: 1260 nM

Compound: CSc1ccc(CN[C@H]2C[C@@H](C(=O)NCCc3ccccc3)N(Cc3ccccc3Cl)C2)cc1 [Compound 45, (2S,4S)-1-[(2-Chlorophenyl)methyl]-4-{[(4-(methylthio)phenyl)methyl]amino}-N-(2-phenylethyl)pyrrolidine-2-carboxamide]
- Kb [1, 10]: 530 ± 80 nM
- Kb ([1]; calcium mobilization assay): 530 nM
- Kb ([2]; Table 2, 4-(4-methylthio)benzylamino series, mean ± SEM, read-out: NPFF2 Ke): 3700 nM

Compound: COc1ccc(CN[C@H]2C[C@@H](C(=O)NCCCc3ccccc3)N(Cc3ccccc3Cl)C2)cc1 [Compound 25, (2S,4S)-1-[(2-Chlorophenyl)methyl]-4-{[(4-methoxyphenyl)methyl]amino}-N-(3-phenylpropyl)pyrrolidine-2-carboxamide]
- Kb [1]: > 10000 nM
- Kb [2, 9]: 2600 nM

Compound: COc1ccc(CN[C@H]2C[C@@H](C(=O)NCCC3CCCCC3)N(Cc3ccccc3Cl)C2)cc1 [Compound 21, (2S,4S)-1-[(2-Chlorophenyl)methyl]-N-(2-cyclohexylethyl)-4-{[(4-methoxyphenyl)methyl]amino}pyrrolidine-2-carboxamide]
- Kb [1, 6]: 1120 nM
- Kb [2, 9]: 1220 nM

Compound: CCCNC(=O)[C@@H]1C[C@H](NCc2ccc(OC)cc2)CN1Cc1ccccc1Cl [Compound 12, (2S,4S)-1-[(2-Chlorophenyl)methyl]-4-{[(4-methoxyphenyl)methyl]amino}-N-propylpyrrolidine-2-carboxamide]
- Kb [1, 6]: 2600 nM
- Kb ([1]; calcium mobilization assay): 9080 nM
- Kb [2, 7]: 9080 nM

Compound: COc1ccc(CN[C@H]2C[C@@H](C(=O)NCCC(C)C)N(Cc3ccccc3Cl)C2)cc1 [Compound 17, (2S,4S)-1-[(2-Chlorophenyl)methyl]-4-{[(4-methoxyphenyl)methyl]amino}-N-(3-methylbutyl)pyrrolidine-2-carboxamide]
- Kb [1, 6]: 1320 nM
- Kb [2, 9]: 1540 nM

Compound: CCC(C)NC(=O)[C@@H]1C[C@H](NCc2ccc(OC)cc2)CN1Cc1ccccc1Cl (stereo partly drawn) [Compound 14, (2S,4S)—N-(Butan-2-yl)-1-[(2-chlorophenyl)methyl]-4-{[(4-methoxyphenyl)methyl]amino}pyrrolidine-2-carboxamide]
- Kb [1, 6]: 1500 nM
- Kb [2, 7]: 3680 nM

Compound: CCNC(=O)[C@@H]1C[C@H](NCc2ccc(SC)cc2)CN1Cc1ccccc1Cl [Compound 1]
- NPFF1 Ke ([1]; calcium mobilization assay): 1,620 nM
- NPFF2 Ke ([2]; calcium mobilization assay): 7,250 nM

Compound: CSc1ccc(CN[C@H]2C[C@@H](C(=O)NCCc3ccc(F)c(F)c3)N(Cc3ccccc3Cl)C2)cc1 [Compound 48, (2S,4S)-1-[(2-Chlorophenyl)methyl]-N-[2-(3,4-difluorophenyl)ethyl]-4-{[(4-(methylthio)phenyl)methyl]amino}pyrrolidine-2-carboxamide]
- Kb [1, 10]: 470 ± 60 nM
- Kb ([1]; calcium mobilization assay): 470 nM
- Kb ([2]; Table 2, footnote c: pre-incubation 1 hr, read-out: NPFF2 Ke): 880 ± 160 nM

Compound: CCCCCCNC(=O)[C@@H]1C[C@H](NCc2ccc(OC)cc2)CN1Cc1ccccc1Cl [Compound 18, (2S,4S)-1-[(2-Chlorophenyl)methyl]-4-{[(4-methoxyphenyl)methyl]amino}-N-hexylpyrrolidine-2-carboxamide]
- Kb [1, 6]: 820 ± 80 nM
- Kb [2, 9]: 1490 nM

Continued, values first:

- Kb ([1]; Table 3, mean ± SEM): 1150 nM
- Kb [2, 5]: 1130 nM
Compound: O=C(NCCc1ccc([N+](=O)[O-])cc1)[C@@H]1C[C@H](NCCc2ccccc2)CN1Cc1ccccc1Cl [Compound 58]

- Kb ([1]; Table 4, mean ± SEM): 1270 nM
- Kb [2, 8]: > 10000 nM
Compound: COc1ccc(CN[C@H]2C[C@@H](C(=O)NCCc3ccccc3)N(Cc3ccccc3)C2)cc1 [Compound 76, (2S,4S)-1-Benzyl-4-{[(4-methoxyphenyl)methyl]amino}-N-(2-phenylethyl)pyrrolidine-2-carboxamide]

- Kb ([1]; Table 4, mean ± SEM): 2460 nM
- Kb [2, 8]: > 10000 nM
Compound: COc1ccc(CN[C@H]2C[C@@H](C(=O)NCCc3ccccc3)N(Cc3cccc(OC)c3)C2)cc1 [Compound 80, (2S,4S)-1-[(3-Methoxyphenyl)methyl]-4-{[(4-methoxyphenyl)methyl]amino}-N-(2-phenylethyl)pyrrolidine-2-carboxamide]

- Kb ([1]; Table 4, mean ± SEM): 9020 nM
- Kb [2, 8]: 5360 nM
Compound: COc1ccc(CN[C@H]2C[C@@H](C(=O)NCCc3ccccc3)N(Cc3ccc(OC)c(OC)c3)C2)cc1 [Compound 81, (2S,4S)-1-[(3,4-Dimethoxyphenyl)methyl]-4-{[(4-methoxyphenyl)methyl]amino}-N-(2-phenylethyl)pyrrolidine-2-carboxamide]

- Kb ([1]; Table 4, mean ± SEM): 1720 nM
- Kb [2, 8]: 7220 nM
Compound: COc1ccc(CN[C@H]2C[C@@H](C(=O)NCCc3ccccc3)N(Cc3ccc4ccccc4c3)C2)cc1 [Compound 87, (2S,4S)-4-{[(4-Methoxyphenyl)methyl]amino}-1-(naphthalen-2-ylmethyl)-N-(2-phenylethyl)pyrrolidine-2-carboxamide]

- Kb ([1]; Table 3, mean ± SEM): 2480 nM
- Kb [2, 5]: > 10000 nM
Compound: CCCCCN[C@H]1C[C@@H](C(=O)NCCc2ccc([N+](=O)[O-])cc2)N(Cc2ccccc2Cl)C1 [Compound 54, (2S,4S)-1-[(2-Chlorophenyl)methyl]-N-[2-(4-nitrophenyl)ethyl]-4-(pentylamino) pyrrolidine-2-carboxamide]

- Kb ([1]; Table 4, mean ± SEM): 2150 nM
- Kb [2, 8]: 4850 nM
Compound: COc1ccc(CN[C@H]2C[C@@H](C(=O)NCCc3ccccc3)N(Cc3ccc(Cl)cc3)C2)cc1 [Compound 78, (2S,4S)-1-[(4-Chlorophenyl)methyl]-4-{[(4-methoxyphenyl)methyl]amino}-N-(2-phenylethyl)pyrrolidine-2-carboxamide]

- Kb ([1]; Table 3, mean ± SEM): 1390 nM
- Kb [2, 5]: 2820 nM
Compound: COc1cccc(CN[C@H]2C[C@@H](C(=O)NCCc3ccc([N+](=O)[O-])cc3)N(Cc3ccccc3Cl)C2)c1 [Compound 59, (2S,4S)-1-[(2-Chlorophenyl)methyl]-4-{[(3-methoxyphenyl)methyl]amino}-N-[2-(4-nitrophenyl)ethyl]pyrrolidine-2-carboxamide]
